Laboratory results as given in patent US7498406B2, “Substantially cell membrane impermeable compound and use thereof” (priority 1999, dated 2009).
“Also recorded” adds a separate entry of the source.

What was measured:
chick CAM = experiment: Chick chorioallantoic membrane (CAM) angiogenesis; format: in vivo; details: for inhibition of CAM angiogenesis (avascular zones): 5, 10 or 50 μg per pellet, 48 hr; for adverse effect on the wellbeing of the chick embryo: up to 50 μg per pellet
Method: FIG. 22. Inhibition of CAM angiogenesis by GSAO. Fertilised 3 day-old white Leghorn eggs were cracked, the embryos placed in petri dishes and incubated for 3 days. Methylcellulose discs containing 5, 10 or 50 μg of either GSAA or GSAO were then applied to the CAM of individual embryos and incubated for 48 hr. The CAMs were scored for no obvious effect or inhibition of angiogenesis as defined by avascular zones. Photographs of CAM's after incubation with discs containing 10 μg of either GSAA (top) or GSAO (bottom) is shown in the left hand panel. The dotted circle indicates the placement of the disc.
The chick CAM assay has been used for the detection and analysis of angiogenesis inhibition (Nguyen et al., 1994). Fertilised 3 day-old white Leghorn eggs (Spafas, Norwich, Conn.) were cracked, the embryos with intact yolks placed in 20×100 mm petri dishes and incubated for 3 days at 37° C. and 3% CO2 (Folkman, 1995). Methylcellulose (Fisher Scientific, Fair Lawn, N.J.) discs containing 5, 10 or 50 μg of either GSAA or GSAO were then applied to the CAM of individual embryos and incubated for 48 hr at 37° C. and 3% CO2. The discs were made by desiccation of GSAA or GSAO in 10 μl of 0.45% methycellulose on teflon rods. The CAMs were observed using a stereomicroscope and scored for no obvious effect or inhibition of CAM angiogenesis as defined by avascular zones. On some occasions CAM blood vessels were injected with India ink and photographed.

BCE = experiment: Proliferation of cultured cells, 72 hr; format: cell-based, bovine; details: for IC50: 72 hr
Method: FIG. 18. Inhibition of proliferation and reduction in viability of BCE cells by GSAO. 15,000 (part A and B) or 50,000 (part C and D) BCE cells per well were seeded into gelatinised 24-well culture plates and allowed to attach for 24 hr (part A, B and D) or 72 hr (part C). The media was then replaced with DMEM containing 5% BCS and 0 to 1 mM GSAO or GSAA and either 1 ng per mL FGF-2 (part A) or 10 ng per mL VEGF (part B). In part D, the media was replaced with DMEM containing 5% BCS and 1 ng per mL FGF-2 and either 10 μM GSAO or GSAA. In part C, the media was replaced with DMEM containing 5% BCS and 0 to 1 mM GSAO or GSAA. Cells were cultured for 72 hr in parts A, B and C or for discrete times up to 48 hr in part D and then dispersed and counted. The dotted line in parts A, B and C indicate the cell number in control wells containing DMEM and 5% BCS which represented no to limited proliferation. The dotted line in part D represents no change in cell number over the 48 hr. The data points and errors represent the mean and range of duplicate wells.
BCE (Folkman et al. 1979), BAE, BxPC-3 (ATCC, Bethesda, Md.), HT1080 (Jiang et al., 1999), 3T3 (ATCC, Bethesda, Md.) and BVSM (Hogg et al., 1997) cells were harvested and cultured as indicated. Cells (0.5 mL of 30,000 or 100,000 cells per mL) were seeded into gelatinized 24-well culture plates (Corning Costar, Corning, N.Y.) in Dulbecco's Modified Eagle's Medium (DMEM, JHR Bioscience, Lenexa, Kans.) containing 10% fetal calf serum (FCS, Intergen Comp., Purchase, N.Y.) and 1% Glutamine Pen-Strep (GPS, Irvine Scientific, Santa Ana, Va.) and allowed to attach for 24 hr in 10% CO2 at 37° C. […] Cells were cultured for 0 to 72 hr in 10% CO2 at 37° C. then dispersed in trypsin/EDTA (GibcoBRL, Granc Island, N.Y.), resuspended in Coulter balanced electrolyte solution and counted with a Z1 Coulter counter (Coulter Corp., Miami, Fla.) in all experiments there were two control wells containing DMEM with 1% GPS and either 5% BCS for BCE cells, 2% BCS for BAE and BVSM cells, or 2% FCS for BxPC-3, HT1080 and 3T3 cells. […]

BAE = experiment: Viability of cultured cells, 72 hr; format: cell-based, bovine
Method: BCE (Folkman et al. 1979), BAE, BxPC-3 (ATCC, Bethesda, Md.), HT1080 (Jiang et al., 1999), 3T3 (ATCC, Bethesda, Md.) and BVSM (Hogg et al., 1997) cells were harvested and cultured as indicated. Cells (0.5 mL of 30,000 or 100,000 cells per mL) were seeded into gelatinized 24-well culture plates (Corning Costar, Corning, N.Y.) in Dulbecco's Modified Eagle's Medium (DMEM, JHR Bioscience, Lenexa, Kans.) containing 10% fetal calf serum (FCS, Intergen Comp., Purchase, N.Y.) and 1% Glutamine Pen-Strep (GPS, Irvine Scientific, Santa Ana, Va.) and allowed to attach for 24 hr in 10% CO2 at 37° C. The media was then replaced with DMEM and 1% GPS containing 0 to 1 mM GSAO or GSAA and either 5% bovine calf serum (BCS, HyClone, Logan, Utah) and 1 ng per mL FGF-2 (Genzyme, Cambridge, Mass.) or 5% BCS and 10 ng per mL VEGF (Genzyme, Cambridge, Mass.) for BCE cells, 5% or 10% BCS for BAE cells, 5% BCS for BVSM cells, and 5% FCS for BxPC-3, HT1080 and 3T3 cells. Cells were cultured for 0 to 72 hr in 10% CO2 at 37° C. then dispersed in trypsin/EDTA (GibcoBRL, Granc Island, N.Y.), resuspended in Coulter balanced electrolyte solution and counted with a Z1 Coulter counter (Coulter Corp., Miami, Fla.) in all experiments there were two control wells containing DMEM with 1% GPS and either 5% BCS for BCE cells, 2% BCS for BAE and BVSM cells, or 2% FCS for BxPC-3, HT1080 and 3T3 cells. […]

BxPc3 = experiment: Proliferation of cultured cells, 72 hr; format: cell-based, human; details: 5% FCS, 0 to 1 mM
Method: (§1) FIG. 19. Effect of GSAO on proliferation of non-endothelial cells. 15,000 BxPC-3 (part A), HT1080 (part B), 3T3 (part C) or BVSM (part D) cells per well were seeded into gelatinised 24-well culture plates and allowed to attach for 24 hr. The media was then replaced with DMEM containing 0 to 1 mM GSAO or GSAA and either 5% BCS (part D) or 5% FCS (parts A, B and C). Cells were cultured for 72 hr and then dispersed and counted. The dotted lines indicate the cell number in control wells containing DMEM and 2% BCS (part D) or 2% FCS (parts A, B and C) which represented no to limited proliferation. The data points and errors represent the mean and range of duplicate wells.
(§2) BCE (Folkman et al. 1979), BAE, BxPC-3 (ATCC, Bethesda, Md.), HT1080 (Jiang et al., 1999), 3T3 (ATCC, Bethesda, Md.) and BVSM (Hogg et al., 1997) cells were harvested and cultured as indicated. Cells (0.5 mL of 30,000 or 100,000 cells per mL) were seeded into gelatinized 24-well culture plates (Corning Costar, Corning, N.Y.) in Dulbecco's Modified Eagle's Medium (DMEM, JHR Bioscience, Lenexa, Kans.) containing 10% fetal calf serum (FCS, Intergen Comp., Purchase, N.Y.) and 1% Glutamine Pen-Strep (GPS, Irvine Scientific, Santa Ana, Va.) and allowed to attach for 24 hr in 10% CO2 at 37° C. The media was then replaced with DMEM and 1% GPS containing 0 to 1 mM GSAO or GSAA and either 5% bovine calf serum (BCS, HyClone, Logan, Utah) and 1 ng per mL FGF-2 (Genzyme, Cambridge, Mass.) or 5% BCS and 10 ng per mL VEGF (Genzyme, Cambridge, Mass.) for BCE cells, 5% or 10% BCS for BAE cells, 5% BCS for BVSM cells, and 5% FCS for BxPC-3, HT1080 and 3T3 cells. Cells were cultured for 0 to 72 hr in 10% CO2 at 37° C. then dispersed in trypsin/EDTA (GibcoBRL, Granc Island, N.Y.), resuspended in Coulter balanced electrolyte solution and counted with a Z1 Coulter counter (Coulter Corp., Miami, Fla.) in all experiments there were two control wells containing DMEM with 1% GPS and either 5% BCS for BCE cells, 2% BCS for BAE and BVSM cells, or 2% FCS for BxPC-3, HT1080 and 3T3 cells. These wells represented no to limited proliferation.

HT1080 = experiment: Proliferation of cultured cells, 72 hr; format: cell-based, human; details: 5% FCS, 0 to 1 mM
Method: as §1, §2

## N[C@@H](CCC(=O)N[C@@H](CSCC(=O)Nc1ccc([As](=O)(O)O)cc1)C(=O)NCC(=O)O)C(=O)O [GSAA, 4-(N-(S-glutathionylacetyl)amino)phenylarsonic acid, reference compound]
Chick CAM
  inhibition of CAM angiogenesis (avascular zones): did not inhibit CAM angiogenesis; also recorded: no effects on CAM angiogenesis
  adverse effect on the wellbeing of the chick embryo: Neither GSAA nor GSAO had any apparent adverse effect
BCE; highest concentration used, 1 mM
  effect on proliferation of BCE cells: only a marginal effect on proliferation
BAE; not shown
  effect on viability of BAE cells: did not effect either proliferation or viability
BxPc3
  Proliferation IC50: no significant effect
HT1080
  Proliferation IC50: no significant effect

## NC(CCC(=O)NC(CSCC(=O)Nc1ccc([As]=O)cc1)C(=O)NCC(=O)O)C(=O)O (stereo not shown) [GSAO, 4-(N-(S-glutathionylacetyl)amino)-phenylarsenoxide]
Chick CAM
  inhibition of CAM angiogenesis (avascular zones): inhibited angiogenesis in the CAM in a concentration-dependent manner
  adverse effect on the wellbeing of the chick embryo: Neither GSAA nor GSAO had any apparent adverse effect
BCE; 5% BCS + 1 ng/mL FGF-2
  IC50: ~100 nM
BCE; 5% BCS + 10 ng/mL VEGF
  IC50: ~50 nM
BAE; Bos taurus, 72 h, 10% BCS, >90% confluent
  IC50: ~10000 nM
BxPc3
  Proliferation IC50: did not affect the proliferation
HT1080
  Proliferation IC50: did not affect the proliferation
